The conditions of data set [1]: cited from earlier work.
Data set [2] can be described thus: Ionization of DPPA as a function of pH. In kind it is physicochemical. The source says: As those skilled in the art will appreciate, DPPA comprises two acidic protons. The pKa for the second acidic proton is about 7.9. FIG. 1 graphically depicts the ionization of DPPA as a function of pH. Curve 110 recites the percent of mono-anion 6 present, and curve 120 recites the percent of di-anion 7 present. At a pH of about 4 and higher, the combined percentages of mono-anion 6 and di-anion 7 total 100.
At a pH of about 7.9, DPPA comprises about 50 percent mono-anion 7 and about 50 percent di-anion 8. At a pH of about 7.0, DPPA comprises about 85 percent mono-anion 7 and about 15 percent di-anion 8.

The text below walks through data of US11160885B2, “Phospholipid composition and microbubbles and emulsions formed using same” (Microvascuar Therapeutics LLC, priority 2014, dated 2021).

For `CCCCCCCCCCCCCCCC(=O)OC[C@H](COP(=O)(O)O)OC(=O)CCCCCCCCCCCCCCC` [DPPA, dipalmitoylphosphatidic acid], the “pKa for the second acidic proton” value in data set [1] is “about 7.9”. Further, in data set [2] (pH of about 7.0), the percent di-anion result was “about 15%” and the percent mono-anion result is “about 85%”. Besides, in data set [2] (pH of about 7.9), the percent di-anion entry is “about 50%” and the percent mono-anion result was “about 50%”.
